Biological target: HGFR (c-Met) (Homo sapiens, UniProt P08581)
Assay: HGFR Continuous-Coupled Spectrophotometric Assay
Type: biochemical
Conditions: HGFR enzyme 50 nM, Met-2 peptide substrate, 37° C.
How it was run: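 Human HGFR (50 nM final) phosphorylates the Met-2 activation-loop peptide, with ADP formation coupled through PK/LDH to NADH consumption, read as the A340 decrease over 10 min at 37 °C. Buffer was HEPES pH 7.5 with MgCl2, DTT, PEP and ATP.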

Chain of HGFR (c-Met) (P08581 974-1390): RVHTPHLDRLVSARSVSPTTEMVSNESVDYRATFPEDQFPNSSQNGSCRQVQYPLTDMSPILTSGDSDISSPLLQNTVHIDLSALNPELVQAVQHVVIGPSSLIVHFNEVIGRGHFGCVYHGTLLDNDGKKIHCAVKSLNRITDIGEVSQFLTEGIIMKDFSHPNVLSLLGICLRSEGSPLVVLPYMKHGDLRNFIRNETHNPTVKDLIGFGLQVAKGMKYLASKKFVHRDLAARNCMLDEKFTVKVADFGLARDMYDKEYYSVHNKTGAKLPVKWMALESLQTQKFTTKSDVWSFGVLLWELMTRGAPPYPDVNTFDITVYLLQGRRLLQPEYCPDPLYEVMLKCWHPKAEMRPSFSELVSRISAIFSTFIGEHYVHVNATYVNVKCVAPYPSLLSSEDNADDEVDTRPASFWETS

Row | Structure (SMILES) | Ki [nM]
1 | CC(Oc1cc(-c2ccc(CO)cn2)cnc1N)c1c(Cl)ccc(F)c1Cl (centres unmarked) [Example 146, {6′-amino-5′-[1-(2,6-dichloro-3-fluorophenyl)ethoxy]-2,3′-bipyridin-5-yl}methanol] | 655
2 | CC(Oc1cc(-c2ccc3c(ccn3C)c2)cnc1N)c1c(Cl)ccc(F)c1Cl (centres unmarked) [Example 148, 3-[1-(2,6-dichloro-3-fluorophenyl)ethoxy]-5-(1-methyl-1H-indol-5-yl)pyridin-2-amine] | 153
3 | COc1ccc(-c2cnc(N)c(OC(C)c3c(Cl)ccc(F)c3Cl)c2)cc1CC#N (centres unmarked) [Example 149, (5-{6-amino-5-[1-(2,6-dichloro-3-fluorophenyl)ethoxy]pyridin-3-yl}-2-methoxyphenyl) acetonitrile] | 370
4 | CC(O)c1cccc(-c2cnc(N)c(OC(C)c3c(Cl)ccc(F)c3Cl)c2)c1 (centres unmarked) [Example 150, 1-(3-{6-amino-5-[1-(2,6-dichloro-3-fluorophenyl)ethoxy]pyridin-3-yl}phenyl)ethanol] | 200
5 | CC(Oc1cc(-c2ccc(C3(C#N)CCNCC3)cc2)cnc1N)c1c(Cl)ccc(F)c1Cl (centres unmarked) [Example 152, 4-(4-{6-amino-5-[1-(2,6-dichloro-3-fluorophenyl)ethoxy]pyridin-3-yl}phenyl) piperidine-4-carbonitrile] | 12

Results, then the compound that gave them:

Row | Ki [nM] | Structure (SMILES)
6 | 80 | CC(Oc1cc(-c2ccc(C[C@H](N)C(=O)O)cc2)cnc1N)c1c(Cl)ccc(F)c1Cl (some centres unmarked) [Example 144, 4-{6-amino-5-[1-(2,6-dichloro-3-fluorophenyl)ethoxy]pyridin-3-yl}phenylalanine]
7 | 69 | CC(Oc1cc(-c2ccc(CO)nc2)cnc1N)c1c(Cl)ccc(F)c1Cl (centres unmarked) [Example 145, {6′-amino-5′-[1-(2,6-dichloro-3-fluorophenyl)ethoxy]-3,3′-bipyridin-6-yl}methanol]
8 | 73 | CC(=O)c1ccc(-c2cnc(N)c(OC(C)c3c(Cl)ccc(F)c3Cl)c2)cc1 (centres unmarked) [Example 147, 1-(4-{6-amino-5-[1-(2,6-dichloro-3-fluorophenyl)ethoxy]pyridin-3-yl}phenyl) ethanone]
9 | 6 | CC(Oc1cc(-c2cccc(C3(C#N)CCNCC3)c2)cnc1N)c1c(Cl)ccc(F)c1Cl (centres unmarked) [Example 153, 4-(3-{6-amino-5-[1-(2,6-dichloro-3-fluorophenyl)ethoxy]pyridin-3-yl}phenyl) piperidine-4-carbonitrile]
10 | 22 | CC(=O)N1CCC(C#N)(c2cccc(-c3cnc(N)c(OC(C)c4c(Cl)ccc(F)c4Cl)c3)c2)CC1 (centres unmarked) [Example 154, 1-acetyl-4-(3-{6-amino-5-[1-(2,6-dichloro-3-fluorophenyl)ethoxy]pyridin-3-yl}phenyl) piperidine-4-carbonitrile]
11 | 40 | CC(Oc1cc(-c2ccc3nc(C(=O)N(C)C)cn3c2)cnc1N)c1c(Cl)ccc(F)c1Cl (centres unmarked) [Example 155, 6-{6-amino-5-[1-(2,6-dichloro-3-fluorophenyl)ethoxy]pyridin-3-yl}-N,N-dimethylimidazo[1,2-a]pyridine-2-carboxamide]

— US20060178374A1, “Aminoheteroaryl compounds as protein kinase inhibitors” (AGOURON PHARMACEUTICALS, INC., priority 2004, published 2006)
